Results reported in paper PMC3345137 (Toxicology and Applied Pharmacology, 2011).

What was measured:
Rat hydrolase A = biological target: T1, Rat hydrolase A (Rattus norvegicus, UniProt P16303); type: biochemical
T1 sequence (P16303 19-565): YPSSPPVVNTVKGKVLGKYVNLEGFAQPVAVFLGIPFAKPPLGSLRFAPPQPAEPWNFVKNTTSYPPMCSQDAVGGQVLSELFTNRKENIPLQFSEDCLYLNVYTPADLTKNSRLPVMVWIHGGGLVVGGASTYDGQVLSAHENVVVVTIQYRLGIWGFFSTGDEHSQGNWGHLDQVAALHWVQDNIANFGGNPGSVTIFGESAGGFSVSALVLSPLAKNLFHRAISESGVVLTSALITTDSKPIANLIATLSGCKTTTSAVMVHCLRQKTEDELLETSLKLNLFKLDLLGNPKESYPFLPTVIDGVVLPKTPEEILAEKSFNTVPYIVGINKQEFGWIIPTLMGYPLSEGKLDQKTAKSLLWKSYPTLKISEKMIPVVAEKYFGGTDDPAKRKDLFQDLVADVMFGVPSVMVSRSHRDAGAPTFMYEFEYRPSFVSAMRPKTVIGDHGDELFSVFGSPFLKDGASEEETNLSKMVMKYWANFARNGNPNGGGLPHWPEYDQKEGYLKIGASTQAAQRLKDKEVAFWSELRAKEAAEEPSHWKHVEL

[1] = biological target: T2, Human recombinant CES2 (Carboxylesterase 2) (Homo sapiens, UniProt O00748); type: biochemical
T2 sequence (O00748 27-559): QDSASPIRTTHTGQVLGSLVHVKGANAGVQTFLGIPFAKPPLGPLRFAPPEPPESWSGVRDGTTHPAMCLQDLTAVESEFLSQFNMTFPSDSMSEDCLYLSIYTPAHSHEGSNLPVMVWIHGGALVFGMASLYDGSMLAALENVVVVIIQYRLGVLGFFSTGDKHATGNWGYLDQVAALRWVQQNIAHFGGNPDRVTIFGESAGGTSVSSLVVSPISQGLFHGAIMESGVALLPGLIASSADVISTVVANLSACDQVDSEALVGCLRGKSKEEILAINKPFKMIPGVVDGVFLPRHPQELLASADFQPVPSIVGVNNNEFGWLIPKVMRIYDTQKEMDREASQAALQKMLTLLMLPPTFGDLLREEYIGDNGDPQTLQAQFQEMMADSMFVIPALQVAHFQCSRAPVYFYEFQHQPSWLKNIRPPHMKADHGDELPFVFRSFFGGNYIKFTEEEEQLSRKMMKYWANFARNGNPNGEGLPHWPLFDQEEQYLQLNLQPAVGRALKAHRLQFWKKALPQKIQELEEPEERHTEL

[2] = biological target: T3, Human recombinant MGL (Monoacylglycerol lipase) (Homo sapiens, UniProt Q99685); type: biochemical; settings: Michaelis constant of substrate pNPV with MGL, no inhibitor
T3 sequence (Q99685 1-303): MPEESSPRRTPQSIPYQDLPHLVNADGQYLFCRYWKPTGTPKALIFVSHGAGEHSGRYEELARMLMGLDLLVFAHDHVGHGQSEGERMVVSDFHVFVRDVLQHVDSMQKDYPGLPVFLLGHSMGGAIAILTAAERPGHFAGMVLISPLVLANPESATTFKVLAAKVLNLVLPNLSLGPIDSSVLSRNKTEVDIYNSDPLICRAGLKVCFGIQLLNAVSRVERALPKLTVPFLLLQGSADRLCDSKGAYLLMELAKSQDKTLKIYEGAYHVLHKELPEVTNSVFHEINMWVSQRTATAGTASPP

[3] = biological target: T4, Human recombinant CES1 (Carboxylesterase 1) (Homo sapiens, UniProt P23141); type: biochemical; settings: Michaelis constant of substrate pNPV with CES1, no inhibitor
T4 sequence (P23141 18-567): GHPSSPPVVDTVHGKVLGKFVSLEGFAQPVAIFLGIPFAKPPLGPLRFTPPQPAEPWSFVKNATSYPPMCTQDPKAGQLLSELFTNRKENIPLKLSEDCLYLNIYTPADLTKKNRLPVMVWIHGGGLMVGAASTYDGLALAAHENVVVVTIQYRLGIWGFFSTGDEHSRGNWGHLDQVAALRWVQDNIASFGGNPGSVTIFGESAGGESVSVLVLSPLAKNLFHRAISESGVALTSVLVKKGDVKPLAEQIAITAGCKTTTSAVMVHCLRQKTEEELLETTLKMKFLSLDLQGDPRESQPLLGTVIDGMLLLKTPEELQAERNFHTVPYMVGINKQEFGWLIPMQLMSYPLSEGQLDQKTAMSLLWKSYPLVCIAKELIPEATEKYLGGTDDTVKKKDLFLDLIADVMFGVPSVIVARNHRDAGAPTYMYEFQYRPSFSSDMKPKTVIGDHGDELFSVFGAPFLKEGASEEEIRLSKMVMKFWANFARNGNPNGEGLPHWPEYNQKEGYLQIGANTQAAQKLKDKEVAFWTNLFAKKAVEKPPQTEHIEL

[4] = biological target: porcine liver carboxylesterase; settings: 25°C, ref Quistad and Casida, 2000; cited from earlier work
butyrylcholinesterase = settings: purified butyrylcholinesterase; ref Shenouda et al., 2009; cited from earlier work
[5] = tested on: recombinant human butyrylcholinesterase; settings: experimental, ref Amitai et al., 1998; cited from earlier work
[6] = tested on: recombinant human acetylcholinesterase; settings: experimental, ref Amitai et al., 1998; cited from earlier work

SMILES	Km (Rat hydrolase A; Michaelis constant of substrate pNPV with rat hydrolase A, no inhibitor)	Km ([1]; Michaelis constant of substrate pNPV with CES2, no inhibitor)	Km [2]	Km [3]	true bimolecular rate constant ([1]; CES2, single representative experiment, calculated with Equation (4))	apparent bimolecular rate constant (ki’= kinact/KI’) ([1]; CES2, single representative experiment, pNPV 500 µM, 37°C)	IC50 [4]	bimolecular rate constant (Rat hydrolase A; rat hydrolase A purified from rat liver)	bimolecular rate constant (butyrylcholinesterase)	bimolecular rate constant [5]	bimolecular rate constant [6]
CCCCC(=O)Oc1ccc([N+](=O)[O-])cc1 [pNPV, para-Nitrophenyl valerate]	32.6 µM	90 ± 12 µM	158 ± 37 µM	136 ± 40 µM	–	–	–	–	–	–	–
CCOP(=O)(OCC)Oc1ccc([N+](=O)[O-])cc1 [Paraoxon]	–	–	–	–	29000 M⁻¹ s⁻¹	4400 M⁻¹ s⁻¹	3 nM	–	–	–	–
CCOP(=O)(OCC)Oc1nc(Cl)c(Cl)cc1Cl [Chlorpyrifos Oxon, Chlorpyrifos oxon]	–	–	–	–	–	–	2 nM	3.3e+06 M⁻¹ s⁻¹	8.47e+08 M⁻¹ s⁻¹	2.78e+07 M⁻¹ s⁻¹	167000 M⁻¹ s⁻¹
